# Data: patent publication US11352396B2, “Antimicrobial peptides and methods of using same” (Zoetis Services LLC, priority 2017, dated 2022)
# Experiments:
# [1] = test system: Canine-derived epithelial keratinocyte (CPEK) cells; type: cell-based
# Experimental: Safety of the peptides listed in table 2 was determining by measuring cell viability. Canine-derived epithelial keratinocyte (CPEK) cells were propagated to determine cell viability in the presence of peptides. Cells were grown from a frozen stock in CnT-09-5 (with supplements) pre-warmed media in a T75 flask and incubated overnight at 37° C., 5% CO2. Cells were washed with phosphate buffer and replenished with pre-warmed CnT-05-9 media and repeated for several days until cells reached a density of 6.6×10^4 cells/mL. Cells were then transferred to a 384 well plate, allowed to settle and dosed with peptides and melittin control peptide (50 μM to 0.05 μM) and incubated overnight at 37° C., 5% CO2. 0.1% TritonX100 as (HPE) and phosphate buffer alone as (ZPE) were added to the plates to calculate percent effect once the assay was terminated with 10 μL CELLTITER-GLO® assay reagents for a luminescent readout.
# [2] = test system: cRBC; type: cell-based, canine
# Experimental: SEQ ID NO: 1 was selected for further research. Toxicity of SEQ ID NO: 1 to eukaryotic blood cells was compared to that of tachyplesin (SEQ ID NO: 13). A standard, well referenced red blood cell hemolysis assay was employed against multiple species to test the lysis potential of the peptides. Red blood cells (RBCs) were prepared and isolated by several centrifuge and wash steps to remove the plasma fraction. A dose titration (50 μM to 0.05 μM) of test peptides and control peptide melittin were spotted from 50 mM stocks in a 384 well plate. Prepared RBCs were incubated with peptide for one hour at 37° C. Percent hemolysis was measured by optical density at 405 nm and utilizing 1% TritonX100 as hundred percent effect (HPE) and phosphate buffer alone as zero percent effect (ZPE).
# [3] = test system: MSSP (Methicillin-Susceptible Staphylococcus pseudintermedius); assay: MIC against selected strains of MSSP; type: cell-based; parameters: key to MIC MSSP 84658 / MIC MSSP 86000 / MIC MSSP 71990 / MIC MSSP 72036 / MIC MSSP 78032: MIC in μM; key to MIC MSSP 86001 / MIC MSSP 72191 / MIC MSSP 76986 / MIC MSSP 77378: MIC in μM (first well with no visible growth); MIC MSSP 49051 / MIC MSSP 81923 / MIC MSSP 84250 / Effect on MSSP 86000 / Effect on MSSP 72036 / Effect on MSSP 78032: unit not given beside the values; settings: for MIC MSSP 49051: strain 49051, Table 3; for MIC MSSP 71990: strain 71990, Table 3; for MIC MSSP 72036: strain 72036, Table 3; for MIC MSSP 72191: strain 72191, Table 3; for MIC MSSP 76986: strain 76986, Table 3; for MIC MSSP 77378: strain 77378, Table 3; for MIC MSSP 78032: strain 78032, Table 3; for MIC MSSP 81923: strain 81923, Table 3; for MIC MSSP 84250: strain 84250, Table 3; for MIC MSSP 84658: strain 84658, Table 3; for MIC MSSP 86000: strain 86000, Table 3; for MIC MSSP 86001: strain 86001, Table 3
# Experimental: (§1) Peptides according to SEQ ID NOs as listed in Table 1 were prepared by a commercial manufacturer (CS Bio, Menlo Park, Calif.) using solid phase synthesis. Antimicrobial activity was assessed by determining the Minimal Inhibitory Concentration (MIC) against S. aureus and E. coli. Briefly, Microbroth MICs were performed using CLSI methodology (VET01-S2). For S. aureus and E. coli ATCC strains, TSA with 5% lysed horse blood agar was used for overnight culturing at 37° C. ambient air. A 0.5 mM stock for each peptide was made with cell culture water, 0.01% acetic acid and serially diluted and spotted (10 μL) in a 96-well plate for in assay dose titration concentration of 50 μM to 0.05 μM. 0.5 McFarland Standard of each strain was diluted 1:250 in Mueller-Hinton Broth (MHB). 90 μL of culture suspension was then added upon drug in the 96-well plate for overnight incubation for 18-20 hours. The MIC was determined visually at the first well of no visible growth at the corresponding concentration.
# (§2) Antimicrobial activity of the peptides listed in Table 2 against different strains of MSSP (Methicillin-Susceptible Staphylococcus pseudintermedius) and MRSP (Methicillin-Resistant Staphylococcus pseudintermedius) was further assessed. The results are in Tables 3 and 4, respectively.
# [4] = test system: MRSP (Methicillin-Resistant Staphylococcus pseudintermedius); assay: MIC against selected strains of MRSP; type: cell-based; parameters: key to MIC MRSP 88493 / MIC MRSP 72035 / MIC MRSP 81926: MIC in μM; key to MIC MRSP 71994 / MIC MRSP 79882 / MIC MRSP 80729 / MIC MRSP 86002: MIC in μM (first well with no visible growth); key to MIC MRSP 72192 / MIC MRSP 76923 / MR 71994 / Mr 88493 / MR 72035 / MR 72192 / MR 76923 / MR 79882 / MR 80279 / MR 81926 / MR 86002 / MR 87665: MIC in μM (visual, first well with no growth); MIC MRSP 87655: unit not given beside the values; settings: for MIC MRSP 71994: strain 71994, Table 4; for MIC MRSP 72035: strain 72035, Table 4; for MIC MRSP 72192: strain 72192, Table 4; for MIC MRSP 76923: strain 76923, Table 4; for MIC MRSP 79882: strain 79882, Table 4; for MIC MRSP 80729: strain 80729, Table 4; for MIC MRSP 81926: strain 81926, Table 4; for MIC MRSP 86002: strain 86002, Table 4; for MIC MRSP 87655: strain 87655, Table 4; for MIC MRSP 88493: strain 88493, Table 4
# Experimental: as §1, §2
Substance,CPEK (50 μM) [1],cRBC (50 μM) [2],MIC MSSP 49051 [3],MIC MSSP 71990 [3],MIC MSSP 72036 [3],MIC MSSP 72191 [3],MIC MSSP 76986 [3],MIC MSSP 77378 [3],MIC MSSP 78032 [3],MIC MSSP 81923 [3],MIC MSSP 84250 [3],MIC MSSP 84658 [3],MIC MSSP 86000 [3],MIC MSSP 86001 [3],MIC MRSP 71994 [4],MIC MRSP 72035 [4],MIC MRSP 72192 [4],MIC MRSP 76923 [4],MIC MRSP 79882 [4],MIC MRSP 80729 [4],also measured
1 (KWCFRVCYRGICYRRCRD; Antimicrobial peptide) [compound 1],21.5,20.5,1.6,1.6,1.6,1.6,1.6,1.6,1.6,1.6,1.6,1.6,1.6,1.6,1.6,1.6,1.6,1.6,1.6,1.6,MIC MRSP 81926 [4]: 1.6; MIC MRSP 86002 [4]: 1.6; MIC MRSP 87655 [4]: 1.6; MIC MRSP 88493 [4]: 1.6
2 (RWCFRVCYRGICYRRCRD; Artificial antimicrobial peptide) [compound 2],−1.7,64.0,1.6,1.6,1.6,1.6,1.6,1.6,1.6,3.1,1.6,3.1,1.6,1.6,1.6,1.6,1.6,1.6,0.8,1.6,MIC MRSP 81926 [4]: 1.6; MIC MRSP 86002 [4]: 1.6; MIC MRSP 87655 [4]: 1.6; MIC MRSP 88493 [4]: 1.6
3 (GWCFRVCYRGICYRRCRD; Artificial Antimicrobial peptide) [compound 3],42.1,67.1,1.6,1.6,1.6,1.6,1.6,0.4,1.6,1.6,1.6,1.6,1.6,0.8,1.6,1.6,1.6,1.6,0.8,1.6,MIC MRSP 81926 [4]: 1.6; MIC MRSP 86002 [4]: 1.6; MIC MRSP 87655 [4]: 1.6; MIC MRSP 88493 [4]: 1.6
4 (KFCFRVCYRGICYRRCRD; Artificial antimicrobial peptide) [compound 4],16.6,67.1,1.6,1.6,0.8,0.8,0.8,0.4,0.8,1.6,1.6,1.6,1.6,0.8,1.6,1.6,1.6,0.8,0.8,0.8,MIC MRSP 81926 [4]: 0.8; MIC MRSP 86002 [4]: 1.6; MIC MRSP 87655 [4]: 1.6; MIC MRSP 88493 [4]: 1.6
5 (KWCFYVCYRGICYRRCRD; Artificial Antimicrobial peptide) [compound 5],28.6,3.1,1.6,1.6,1.6,1.6,1.6,0.8,1.6,1.6,1.6,1.6,1.6,1.6,1.6,1.6,1.6,1.6,1.6,1.6,MIC MRSP 81926 [4]: 1.6; MIC MRSP 86002 [4]: 1.6; MIC MRSP 87655 [4]: 1.6; MIC MRSP 88493 [4]: 1.6
